Drawing on paper PMC3720870, “Chiral Hydroxylation at the Mononuclear Nonheme Fe(II) Center of 4-(S) Hydroxymandelate Synthase – A Structure-Activity Relationship Analysis” (PLoS ONE, 2013), this text covers Km for three compounds.

The target in this assay is T1, Hms (Streptomyces coelicolor, UniProt Q9Z4X7).
T1 construct: gene SCO3229; full-length, C-terminal Strep-tag II kept, expressed in E. coli BL21(DE3) from pKYB1; monomer, ~45 kDa
T1 sequence (Q9Z4X7 1-371): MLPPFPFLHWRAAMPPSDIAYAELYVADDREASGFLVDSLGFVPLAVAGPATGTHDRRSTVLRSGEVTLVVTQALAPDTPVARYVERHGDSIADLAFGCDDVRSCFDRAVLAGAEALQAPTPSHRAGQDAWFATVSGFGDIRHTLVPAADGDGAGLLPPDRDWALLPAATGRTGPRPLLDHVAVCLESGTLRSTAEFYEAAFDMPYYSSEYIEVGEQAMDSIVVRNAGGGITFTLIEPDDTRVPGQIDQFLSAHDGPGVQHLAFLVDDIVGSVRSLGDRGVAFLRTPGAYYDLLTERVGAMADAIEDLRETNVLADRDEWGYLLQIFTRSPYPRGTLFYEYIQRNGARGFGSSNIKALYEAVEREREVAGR
Nature of the assay: O2 consumption, micro-optode, steady state. It is filed as biochemical. Conditions: apparent constant at air saturation; 20 mM Tris/HCl pH 7.5, 25 °C; no added Fe(II).
Regarding `O=C(O)C(=O)Cc1ccccc1` [PP, Phenylpyruvic acid], the Michaelis-Menten constant (Km) came out at 353 ± 87 µM.

For the compound `O=C(O)C(=O)CCc1ccccc1` [OPB, 2-Oxo-4-phenylbutanoic acid], the Km was 35 ± 20 µM.

As to `COc1ccc(CC(=O)C(=O)O)cc1` [VII, p-Methoxyphenylpyruvic acid], the Km turned out to be 160 ± 70 µM.
